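These data come from cells grown in 96-well plates and exposed to compound for 48 hours at five concentrations. GI50: concentration for 50% inhibition of growth. The concentration for full growth arrest is given as TGI.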
What was measured:
Experiment in all cases: NCI tumour cell line growth inhibition, 48 h; in the data active means GI50 below about 0.43 µM; inactive means the rest
HT29 colon = system: HT29 colon
OVCAR-8 ovarian = system: OVCAR-8 ovarian
LOX IMVI melanoma = system: LOX IMVI melanoma
SF-295 CNS = system: SF-295 CNS
U251 CNS = system: U251 CNS
HCT-15 colon = system: HCT-15 colon
OVCAR-4 ovarian = system: OVCAR-4 ovarian
SF-539 CNS = system: SF-539 CNS
HOP-62 NSCLC = system: HOP-62 NSCLC
NCI/ADR-RES ovarian = system: NCI/ADR-RES ovarian
TK-10 renal = system: TK-10 renal
M14 melanoma = system: M14 melanoma
MALME-3M melanoma = system: MALME-3M melanoma
UACC-62 melanoma = system: UACC-62 melanoma
HL-60(TB) leukemia = system: HL-60(TB) leukemia
SK-MEL-5 melanoma = system: SK-MEL-5 melanoma
CCRF-CEM leukemia = system: CCRF-CEM leukemia
COLO 205 colon = system: COLO 205 colon
SNB-75 CNS = system: SNB-75 CNS
HCC-2998 colon = system: HCC-2998 colon
786-0 renal = system: 786-0 renal
RXF 393 renal = system: RXF 393 renal
A549 NSCLC = system: A549 NSCLC
SK-MEL-2 melanoma = system: SK-MEL-2 melanoma
CAKI-1 renal = system: CAKI-1 renal
HOP-92 NSCLC = system: HOP-92 NSCLC
T-47D breast = system: T-47D breast
NCI-H522 lung = system: NCI-H522 lung
KM12 colon = system: KM12 colon
SW-620 colon = system: SW-620 colon
HS 578T breast = system: HS 578T breast
NCI-H460 lung = system: NCI-H460 lung
ACHN renal = system: ACHN renal
MDA-MB-435 = system: MDA-MB-435
SF-268 CNS = system: SF-268 CNS
MCF7 breast = system: MCF7 breast
NCI-H23 lung = system: NCI-H23 lung
SNB-19 CNS = system: SNB-19 CNS
K-562 leukemia = system: K-562 leukemia
HCT-116 colon = system: HCT-116 colon
IGROV1 ovarian = system: IGROV1 ovarian
UO-31 renal = system: UO-31 renal
NCI-H226 lung = system: NCI-H226 lung
UACC-257 melanoma = system: UACC-257 melanoma
RPMI-8226 leukemia = system: RPMI-8226 leukemia
DU-145 prostate = system: DU-145 prostate
BT-549 breast = system: BT-549 breast
MDA-MB-231 breast = system: MDA-MB-231 breast
A498 renal = system: A498 renal
OVCAR-3 ovarian = system: OVCAR-3 ovarian
SN12C renal = system: SN12C renal
PC-3 prostate = system: PC-3 prostate
MOLT-4 leukemia = system: MOLT-4 leukemia
SK-MEL-28 melanoma = system: SK-MEL-28 melanoma
SK-OV-3 ovarian = system: SK-OV-3 ovarian
OVCAR-5 ovarian = system: OVCAR-5 ovarian
EKVX NSCLC = system: EKVX NSCLC
SR leukemia = system: SR leukemia

Cc1cccc(Cc2cnc(NC(=O)CCCOc3ccc(Cl)cc3)s2)c1
6.25 µM: TGI (A498 renal)
4.32 µM: TGI (MDA-MB-435)
5.1 µM: TGI (HL-60(TB) leukemia)
inactive: GI50 (HT29 colon) 3.49 µM | GI50 (OVCAR-8 ovarian) 27.3 µM | GI50 (LOX IMVI melanoma) 6.8 µM | GI50 (SF-295 CNS) 3.89 µM | GI50 (U251 CNS) 4.88 µM | GI50 (HCT-15 colon) 3.56 µM | GI50 (OVCAR-4 ovarian) 3.71 µM | GI50 (SF-539 CNS) 5.13 µM | GI50 (HOP-62 NSCLC) 5.57 µM | GI50 (NCI/ADR-RES ovarian) 29.3 µM | GI50 (TK-10 renal) > 100 µM | GI50 (M14 melanoma) 3.68 µM | GI50 (MALME-3M melanoma) 5.38 µM | GI50 (UACC-62 melanoma) 9.45 µM | GI50 (HL-60(TB) leukemia) 2.24 µM | GI50 (SK-MEL-5 melanoma) 3.69 µM | GI50 (CCRF-CEM leukemia) 3.68 µM | GI50 (COLO 205 colon) 4.46 µM | GI50 (SNB-75 CNS) 2.66 µM | GI50 (HCC-2998 colon) 9.46 µM | GI50 (786-0 renal) 5.95 µM | GI50 (RXF 393 renal) 9.58 µM | GI50 (A549 NSCLC) 3.94 µM | GI50 (SK-MEL-2 melanoma) > 100 µM | GI50 (CAKI-1 renal) 3.68 µM | GI50 (HOP-92 NSCLC) 34.3 µM | GI50 (T-47D breast) 5.82 µM | GI50 (NCI-H522 lung) 51.1 µM | GI50 (KM12 colon) 4.53 µM | GI50 (SW-620 colon) 3.39 µM | GI50 (HS 578T breast) 5.32 µM | GI50 (NCI-H460 lung) 3.32 µM | GI50 (ACHN renal) 3.47 µM | GI50 (MDA-MB-435) 1.62 µM | GI50 (SF-268 CNS) > 100 µM | GI50 (MCF7 breast) 3.16 µM | GI50 (NCI-H23 lung) 28 µM | GI50 (SNB-19 CNS) > 100 µM | GI50 (K-562 leukemia) 3.84 µM | GI50 (HCT-116 colon) 3.36 µM | GI50 (IGROV1 ovarian) 9.21 µM | GI50 (UO-31 renal) 4.52 µM | GI50 (NCI-H226 lung) 59.3 µM | GI50 (UACC-257 melanoma) 7.41 µM | GI50 (RPMI-8226 leukemia) 4.23 µM | GI50 (DU-145 prostate) 3.91 µM | GI50 (BT-549 breast) > 100 µM | GI50 (MDA-MB-231 breast) 21.2 µM | GI50 (A498 renal) 1.36 µM | GI50 (OVCAR-3 ovarian) 3.4 µM | GI50 (SN12C renal) 5.26 µM | GI50 (PC-3 prostate) 4.58 µM | GI50 (MOLT-4 leukemia) 5.72 µM | GI50 (SK-MEL-28 melanoma) 37.2 µM | GI50 (SK-OV-3 ovarian) > 100 µM | GI50 (OVCAR-5 ovarian) 5.88 µM | GI50 (EKVX NSCLC) 45 µM | GI50 (SR leukemia) 2.51 µM
> 100 µM: TGI (HT29 colon) | TGI (OVCAR-8 ovarian) | TGI (LOX IMVI melanoma) | TGI (SF-295 CNS) | TGI (U251 CNS) | TGI (HCT-15 colon) | TGI (OVCAR-4 ovarian) | TGI (SF-539 CNS) | TGI (HOP-62 NSCLC) | TGI (NCI/ADR-RES ovarian) | TGI (TK-10 renal) | TGI (M14 melanoma) | TGI (MALME-3M melanoma) | TGI (UACC-62 melanoma) | TGI (SK-MEL-5 melanoma) | TGI (CCRF-CEM leukemia) | TGI (COLO 205 colon) | TGI (SNB-75 CNS) | TGI (HCC-2998 colon) | TGI (786-0 renal) | TGI (RXF 393 renal) | TGI (A549 NSCLC) | TGI (SK-MEL-2 melanoma) | TGI (CAKI-1 renal) | TGI (HOP-92 NSCLC) | TGI (T-47D breast) | TGI (NCI-H522 lung) | TGI (KM12 colon) | TGI (SW-620 colon) | TGI (HS 578T breast) | TGI (NCI-H460 lung) | TGI (ACHN renal) | TGI (SF-268 CNS) | TGI (MCF7 breast) | TGI (NCI-H23 lung) | TGI (SNB-19 CNS) | TGI (K-562 leukemia) | TGI (HCT-116 colon) | TGI (IGROV1 ovarian) | TGI (UO-31 renal) | TGI (NCI-H226 lung) | TGI (UACC-257 melanoma) | TGI (RPMI-8226 leukemia) | TGI (DU-145 prostate) | TGI (BT-549 breast) | TGI (MDA-MB-231 breast) | TGI (OVCAR-3 ovarian) | TGI (SN12C renal) | TGI (PC-3 prostate) | TGI (MOLT-4 leukemia) | TGI (SK-MEL-28 melanoma) | TGI (SK-OV-3 ovarian) | TGI (OVCAR-5 ovarian) | TGI (EKVX NSCLC) | TGI (SR leukemia)
